From US20250235543A1, “MODIFIED PROTEINS AND PROTEIN DEGRADERS” (Cullgen (Shanghai), Inc., priority 2021, published 2025)
Where two headings read alike, the source gives them in different places.

Assays:
CDK4 = biological target: T1, CDK4 (Homo sapiens, UniProt P11802); test: CDK4 percentage degradation in Calu-1 cells (immunoblotting); type: cell-based; details: for inhibition at 0.2 µM: read-out: CDK4 Degradation (200 nM); for inhibition at 10 µM: read-out: CDK4 Degradation (10 μM)
T1 construct: endogenous in cells; host or cells: Calu-1
Summary of the method: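 Cultured cells were rinsed once in cold PBS and lysed in cold RIPA buffer containing protease and phosphatase inhibitors, with gentle agitation at 4° C. for 30 min. Lysates were centrifuged at 13,000 rpm for 10 min at 4° C., and protein was quantified by BCA. Samples were then separated by SDS-PAGE, detected with ECL, and the CDK4 bands quantified in Image Lab.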

cyclin D1 = test: Cyclin D1 percentage degradation in Calu-1 cells (immunoblotting); type: cell-based; details: 16 hours
Summary of the method: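 Cells were rinsed once in cold PBS and lysed in cold RIPA buffer containing protease and phosphatase inhibitors, with gentle agitation at 4° C. for 30 min. Lysates were spun at 13,000 rpm for 10 min at 4° C., protein was measured by BCA, and samples were boiled in Laemmli buffer at 99° C. for 5 min before SDS-PAGE immunoblotting.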

T1 sequence (P11802 2-303 limits assumed): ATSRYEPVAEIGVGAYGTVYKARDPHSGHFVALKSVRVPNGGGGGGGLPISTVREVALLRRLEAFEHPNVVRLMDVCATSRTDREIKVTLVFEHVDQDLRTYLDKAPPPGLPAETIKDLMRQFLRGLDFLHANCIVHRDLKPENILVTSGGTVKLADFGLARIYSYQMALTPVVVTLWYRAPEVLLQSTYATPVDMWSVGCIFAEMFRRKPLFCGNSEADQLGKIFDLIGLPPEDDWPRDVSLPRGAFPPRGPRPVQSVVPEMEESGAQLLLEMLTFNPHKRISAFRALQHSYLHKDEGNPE
T1 sequence (P24385 whole entry partner): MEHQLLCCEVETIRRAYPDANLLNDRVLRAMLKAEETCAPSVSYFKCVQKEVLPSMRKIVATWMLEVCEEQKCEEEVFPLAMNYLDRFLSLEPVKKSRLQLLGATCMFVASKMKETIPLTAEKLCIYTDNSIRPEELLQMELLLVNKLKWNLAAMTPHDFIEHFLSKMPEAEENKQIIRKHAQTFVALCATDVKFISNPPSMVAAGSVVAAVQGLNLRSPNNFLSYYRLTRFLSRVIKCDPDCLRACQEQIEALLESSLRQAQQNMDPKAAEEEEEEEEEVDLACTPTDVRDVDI
T1 sequence (Q16531 2-1140 limits assumed, further chain): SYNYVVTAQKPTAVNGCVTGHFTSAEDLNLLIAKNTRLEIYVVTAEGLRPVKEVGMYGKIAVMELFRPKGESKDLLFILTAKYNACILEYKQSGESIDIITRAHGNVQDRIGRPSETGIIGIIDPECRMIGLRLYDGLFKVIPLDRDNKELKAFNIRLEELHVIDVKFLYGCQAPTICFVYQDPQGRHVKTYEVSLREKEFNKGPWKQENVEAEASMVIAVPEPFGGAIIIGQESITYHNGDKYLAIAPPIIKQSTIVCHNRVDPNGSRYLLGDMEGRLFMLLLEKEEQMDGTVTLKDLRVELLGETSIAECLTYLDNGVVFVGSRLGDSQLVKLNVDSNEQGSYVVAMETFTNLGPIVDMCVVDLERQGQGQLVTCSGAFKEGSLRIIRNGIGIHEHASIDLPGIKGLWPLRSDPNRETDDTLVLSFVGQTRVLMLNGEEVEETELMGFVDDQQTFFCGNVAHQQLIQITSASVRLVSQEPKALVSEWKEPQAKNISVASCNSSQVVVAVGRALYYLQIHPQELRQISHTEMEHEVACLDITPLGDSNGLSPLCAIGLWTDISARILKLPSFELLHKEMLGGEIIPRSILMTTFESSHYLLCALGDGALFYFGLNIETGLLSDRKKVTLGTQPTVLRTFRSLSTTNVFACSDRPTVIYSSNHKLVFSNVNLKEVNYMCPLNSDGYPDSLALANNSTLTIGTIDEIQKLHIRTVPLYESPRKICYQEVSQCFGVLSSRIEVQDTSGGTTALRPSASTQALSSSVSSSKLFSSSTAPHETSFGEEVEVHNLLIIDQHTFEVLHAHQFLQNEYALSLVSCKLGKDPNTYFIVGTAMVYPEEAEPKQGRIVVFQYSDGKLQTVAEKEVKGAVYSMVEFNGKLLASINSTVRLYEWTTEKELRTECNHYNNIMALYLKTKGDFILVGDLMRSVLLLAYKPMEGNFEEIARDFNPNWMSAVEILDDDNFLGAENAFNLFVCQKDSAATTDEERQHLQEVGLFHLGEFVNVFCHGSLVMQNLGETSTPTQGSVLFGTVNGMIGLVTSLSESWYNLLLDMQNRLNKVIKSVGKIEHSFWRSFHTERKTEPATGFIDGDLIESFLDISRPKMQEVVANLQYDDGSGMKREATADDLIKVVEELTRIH

inhibition at 0.2 µM (CDK4; Calu-1 cells, 200 nM, 16 hours) [%]	inhibition at 10 µM (CDK4; Calu-1 cells, 16 hours) [%]	Structure (SMILES)	inhibition at 0.2 µM (CDK4; Calu-1, 16 h) [%]	CyclinD1 Degradation (200 nM) (cyclin D1)	CyclinD1 Degradation (10 μM) (cyclin D1)
		CC(=O)c1c(C)c2cnc(Nc3ccc(N4CCN(C(=O)CCOCCNc5ccc(C)c(C(=O)Nc6nc(C)c(C)s6)c5)CC4)cn3)nc2n(C2CCCC2)c1=O [CPD-110, 5-((2-(3-(4-(6-((6-Acetyl-8-cyclopentyl-5-methyl-7-oxo-7,8-dihydropyrido[2,3-d]pyrimidin-2-yl)amino)pyridin-3-yl)piperazin-1-yl)-3-oxopropoxy)ethyl)amino)-N-(4,5-dimethylthiazol-2-yl)-2-methylbenzamide]	< 30	D (protein percentage degradation <30%)	
30 to 50		CC(=O)c1c(C)c2cnc(Nc3ccc(N4CCN(C(=O)CCOCCOCCNc5cccc(C(=O)Nc6nc(C)c(C)s6)c5C)CC4)cn3)nc2n(C2CCCC2)c1=O [CPD-121, 3-((2-(2-(3-(4-(6-((6-Acetyl-8-cyclopentyl-5-methyl-7-oxo-7,8-dihydropyrido[2,3-d]pyrimidin-2-yl)amino)pyridin-3-yl)piperazin-1-yl)-3-oxopropoxy)ethoxy)ethyl)amino)-N-(4,5-dimethylthiazol-2-yl)-2-methylbenzamide]		C (protein percentage degradation <50%, and >=30%)	
< 30		CC(=O)c1c(C)c2cnc(Nc3ccc(N4CCN(CC(=O)NCCOCCOCCNC(=O)COc5ccc(C(=O)Nc6ncc(C)s6)c(C)c5)CC4)cn3)nc2n(C2CCCC2)c1=O [CPD-039, 4-((14-(4-(6-((6-Acetyl-8-cyclopentyl-5-methyl-7-oxo-7,8-dihydropyrido[2,3-d]pyrimidin-2-yl)amino)pyridin-3-yl)piperazin-1-yl)-2,13-dioxo-6,9-dioxa-3,12-diazatetradecyl)oxy)-2-methyl-N-(5-methylthiazol-2-yl)benzamide]		D (protein percentage degradation <30%)	
< 30		CC(=O)c1c(C)c2cnc(Nc3ccc(N4CCN(CC(=O)NCCOCCOCCOCCOCCOCCNC(=O)c5ccc(C(=O)Nc6ncc(C)s6)c(C)c5)CC4)cn3)nc2n(C2CCCC2)c1=O [CPD-008, N^4-(1-(4-(6-((6-Acetyl-8-cyclopentyl-5-methyl-7-oxo-7,8-dihydropyrido[2,3-d]pyrimidin-2-yl)amino)pyridin-3-yl)piperazin-1-yl)-2-oxo-6,9,12,15,18-pentaoxa-3-azaicosan-20-yl)-2-methyl-N^1-(5-methylthiazol-2-yl)terephthalamide]		D (protein percentage degradation <30%)	
	50 to 80	Cc1nc(NC(=O)c2ccccc2NC(=O)CCOCCOCCOCCNC(=O)CN2CCN(c3ccc(Nc4ncc5cc6n(c5n4)C4(CCCCC4)CNC6=O)nc3)CC2)sc1C [CPD-324, N-(4,5-Dimethylthiazol-2-yl)-2-(2-oxo-1-(4-(6-((6′-oxo-7′,8′-dihydro-6′H-spiro[cyclohexane-1,9′-pyrazino[1′,2′:1,5]pyrrolo[2,3-d]pyrimidin]-2′-yl)amino)pyridin-3-yl)piperazin-1-yl)-6,9,12-trioxa-3-azapentadecan-15-amido)benzamide]			A (protein percentage degradation >= 80%)
	30 to 50	Cc1nc(NC(=O)c2ccccc2NC(=O)CCCCCCNC(=O)CN2CCN(c3ccc(Nc4ncc5cc(C(=O)N(C)C)n(C6CCCC6)c5n4)nc3)CC2)sc1C [CPD-291, 7-Cyclopentyl-2-((5-(4-(2-((7-((2-((4,5-dimethylthiazol-2-yl)carbamoyl)phenyl)amino)-7-oxoheptyl)amino)-2-oxoethyl)piperazin-1-yl)pyridin-2-yl)amino)-N,N-dimethyl-7H-pyrrolo[2,3-d]pyrimidine-6-carboxamide]			B (protein percentage degradation < 80%, and >= 50%)
< 30		CC(=O)c1c(C)c2cnc(Nc3ccc(N4CCN(CC(=O)NCCOCCOCCC(=O)Nc5ccccc5C(=O)Nc5ncc(C)o5)CC4)cn3)nc2n(C2CCCC2)c1=O [CPD-066, 2-(3-(2-(2-(2-(4-(6-((6-Acetyl-8-cyclopentyl-5-methyl-7-oxo-7,8-dihydropyrido[2,3-d]pyrimidin-2-yl)amino)pyridin-3-yl)piperazin-1-yl)acetamido)ethoxy)ethoxy)propanamido)-N-(5-methyloxazol-2-yl)benzamide]		D (protein percentage degradation <30%)	
50 to 80		CC(=O)c1c(C)c2cnc(Nc3ccc(N4CCN(CC(=O)NCCOCCOCCC(=O)Nc5cc(Cl)ccc5C(=O)Nc5nc(C)c(C)s5)CC4)cn3)nc2n(C2CCCC2)c1=O [CPD-140, 2-(3-(2-(2-(2-(4-(6-((6-Acetyl-8-cyclopentyl-5-methyl-7-oxo-7,8-dihydropyrido[2,3-d]pyrimidin-2-yl)amino)pyridin-3-yl)piperazin-1-yl)acetamido)ethoxy)ethoxy)propanamido)-4-chloro-N-(4,5-dimethylthiazol-2-yl)benzamide]		A (protein percentage degradation >=80%)	
< 30		CC(=O)c1c(C)c2cnc(Nc3ccc(N4CCN(CC(=O)NCCCCNc5ccc(C)c(C(=O)Nc6nc(C)c(C)s6)c5)CC4)cn3)nc2n(C2CCCC2)c1=O [CPD-088, 5-((4-(2-(4-(6-((6-Acetyl-8-cyclopentyl-5-methyl-7-oxo-7,8-dihydropyrido[2,3-d]pyrimidin-2-yl)amino)pyridin-3-yl)piperazin-1-yl)acetamido)butyl)amino)-N-(4,5-dimethylthiazol-2-yl)-2-methylbenzamide]		D (protein percentage degradation <30%)	
50 to 80		CC(=O)c1c(C)c2cnc(Nc3ccc(N4CCN(CC(=O)NCCCCCNc5cc(C#N)ccc5C(=O)Nc5ccc(N(C)C)nn5)CC4)cn3)nc2n(C2CCCC2)c1=O [CPD-376, 2-((5-(2-(4-(6-((6-Acetyl-8-cyclopentyl-5-methyl-7-oxo-7,8-dihydropyrido[2,3-d]pyrimidin-2-yl)amino)pyridin-3-yl)piperazin-1-yl)acetamido)pentyl)amino)-4-cyano-N-(6-(dimethylamino)pyridazin-3-yl)benzamide]		A (protein percentage degradation >=80%)	
		CC(=O)c1c(C)c2cnc(Nc3ccc(N4CCN(C(=O)CC(=O)Nc5ccccc5C(=O)Nc5nc(C)c(C)s5)CC4)cn3)nc2n(C2CCCC2)c1=O [CPD-158, 2-(3-(4-(6-((6-Acetyl-8-cyclopentyl-5-methyl-7-oxo-7,8-dihydropyrido[2,3-d]pyrimidin-2-yl)amino)pyridin-3-yl)piperazin-1-yl)-3-oxopropanamido)-N-(4,5-dimethylthiazol-2-yl)benzamide]	< 30	D (protein percentage degradation <30%)	
50 to 80		CC(=O)c1c(C)c2cnc(Nc3ccc(N4CCN(CC(=O)NCCOCCOCCOCCNc5cccc(C(=O)Nc6nc(C)c(C)s6)c5C)CC4)cn3)nc2n(C2CCCC2)c1=O [CPD-105, 3-((1-(4-(6-((6-Acetyl-8-cyclopentyl-5-methyl-7-oxo-7,8-dihydropyrido[2,3-d]pyrimidin-2-yl)amino)pyridin-3-yl)piperazin-1-yl)-2-oxo-6,9,12-trioxa-3-azatetradecan-14-yl)amino)-N-(4,5-dimethylthiazol-2-yl)-2-methylbenzamide]		A (protein percentage degradation >=80%)	
	50 to 80	Cc1nc(NC(=O)c2ccccc2NC(=O)CCOCCOCCNC(=O)CN2CCN(c3ccc(Nc4ncc5cc(C(=O)N(C)C)n(C6CCCC6)c5n4)nc3)CC2)sc1C [CPD-295, 7-Cyclopentyl-2-((5-(4-(2-((2-(2-(3-((2-((4,5-dimethylthiazol-2-yl)carbamoyl)phenyl)amino)-3-oxopropoxy)ethoxy)ethyl)amino)-2-oxoethyl)piperazin-1-yl)pyridin-2-yl)amino)-N,N-dimethyl-7H-pyrrolo[2,3-d]pyrimidine-6-carboxamide]			A (protein percentage degradation >= 80%)
		CC(=O)c1c(C)c2cnc(Nc3ccc(N4CCN(CCCCCOCCOCCNc5cccc(C(=O)Nc6nc(C)c(C)s6)c5C)CC4)cn3)nc2n(C2CCCC2)c1=O [CPD-271, 3-((2-(2-((5-(4-(6-((6-Acetyl-8-cyclopentyl-5-methyl-7-oxo-7,8-dihydropyrido[2,3-d]pyrimidin-2-yl)amino)pyridin-3-yl)piperazin-1-yl)pentyl)oxy)ethoxy)ethyl)amino)-N-(4,5-dimethylthiazol-2-yl)-2-methylbenzamide]	< 30	D (protein percentage degradation <30%)	
50 to 80		CC(=O)c1c(C)c2cnc(Nc3ccc(N4CCN(CC(=O)NCCOCCOCCC(=O)Nc5cc(Br)ccc5C(=O)Nc5nc(C)c(C)s5)CC4)cn3)nc2n(C2CCCC2)c1=O [CPD-144, 2-(3-(2-(2-(2-(4-(6-((6-Acetyl-8-cyclopentyl-5-methyl-7-oxo-7,8-dihydropyrido[2,3-d]pyrimidin-2-yl)amino)pyridin-3-yl)piperazin-1-yl)acetamido)ethoxy)ethoxy)propanamido)-4-bromo-N-(4,5-dimethylthiazol-2-yl)benzamide]		A (protein percentage degradation >=80%)	
		CC(=O)c1c(C)c2cnc(Nc3ccc(N4CCN(C(=O)CCCCCCC(=O)Nc5ccccc5C(=O)Nc5nc(C)c(C)s5)CC4)cn3)nc2n(C2CCCC2)c1=O [CPD-161, 2-(8-(4-(6-((6-Acetyl-8-cyclopentyl-5-methyl-7-oxo-7,8-dihydropyrido[2,3-d]pyrimidin-2-yl)amino)pyridin-3-yl)piperazin-1-yl)-8-oxooctanamido)-N-(4,5-dimethylthiazol-2-yl)benzamide]	< 30	D (protein percentage degradation <30%)	
